Measurements reported in patent US7662778B2, “Histone deacetylase inhibitor and process for producing the same” (Riken, priority 2003, dated 2010).
pEC50, pIC50: −log10 of the molar value. Like-named read-outs stand apart in the source and are kept apart here. Where a SMILES comes first, the peptide text is derived from it. [ ]: non-standard residue; d: D form. The star is where a group is joined. hLys(Nζ-OH,Nζ-For) = N[C@@H](CCCCCN(O)C=O)C(=O)O; Asu = N[C@@H](CCCCCC(=O)O)C(=O)O; X1 = Oc1ccccc1N*; X3 = Sc1ccccc1N*

How the values were obtained:
[1] = amide bond, 12-membered ring, HATU/DIEA, DMF, 25.0 °C
human HDAC4 = biological target: T1, human HDAC4 (Homo sapiens, UniProt P56524); test: HDAC inhibitory activity in vitro (coumarin-labeled acetylated histone peptide), HDAC4; type: biochemical
T1 construct: FLAG; made in house; host or cells: 293T cells, transient transfection; anti-FLAG immunoprecipitation and FLAG peptide elution
T1 sequence (P56524 whole entry): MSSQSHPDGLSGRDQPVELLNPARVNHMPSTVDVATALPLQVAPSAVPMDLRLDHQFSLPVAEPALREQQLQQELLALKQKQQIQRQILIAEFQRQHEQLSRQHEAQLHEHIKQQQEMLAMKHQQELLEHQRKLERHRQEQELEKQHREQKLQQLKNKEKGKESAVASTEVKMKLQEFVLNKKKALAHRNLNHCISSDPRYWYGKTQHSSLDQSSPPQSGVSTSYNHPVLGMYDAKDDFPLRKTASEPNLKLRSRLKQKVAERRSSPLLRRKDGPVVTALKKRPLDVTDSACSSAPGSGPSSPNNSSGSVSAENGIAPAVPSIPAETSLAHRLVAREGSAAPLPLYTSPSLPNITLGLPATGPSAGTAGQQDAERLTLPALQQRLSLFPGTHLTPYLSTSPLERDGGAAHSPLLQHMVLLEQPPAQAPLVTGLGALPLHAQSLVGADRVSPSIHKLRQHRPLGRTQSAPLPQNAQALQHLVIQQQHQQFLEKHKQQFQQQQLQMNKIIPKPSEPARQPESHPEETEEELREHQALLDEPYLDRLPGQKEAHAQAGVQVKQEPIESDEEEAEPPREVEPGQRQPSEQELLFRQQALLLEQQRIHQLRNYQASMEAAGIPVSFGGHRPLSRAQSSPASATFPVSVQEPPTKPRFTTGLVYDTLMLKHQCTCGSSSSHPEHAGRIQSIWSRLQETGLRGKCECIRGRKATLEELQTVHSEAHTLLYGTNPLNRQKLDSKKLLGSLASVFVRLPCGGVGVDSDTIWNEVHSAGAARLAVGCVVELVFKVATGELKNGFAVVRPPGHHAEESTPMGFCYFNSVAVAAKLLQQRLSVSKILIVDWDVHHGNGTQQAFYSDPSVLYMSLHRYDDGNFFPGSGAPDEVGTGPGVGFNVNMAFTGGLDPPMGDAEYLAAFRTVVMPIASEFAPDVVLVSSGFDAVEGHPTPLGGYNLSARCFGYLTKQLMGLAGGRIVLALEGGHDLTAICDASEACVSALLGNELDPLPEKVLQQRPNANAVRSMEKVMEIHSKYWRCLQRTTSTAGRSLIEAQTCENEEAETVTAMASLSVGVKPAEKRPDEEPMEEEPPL

mouse HDAC6 = biological target: T2, mouse HDAC6 (Mus musculus, UniProt Q9Z2V5); test: HDAC inhibitory activity in vitro (coumarin-labeled acetylated histone peptide), HDAC6; type: biochemical; conditions: for IC50: Table 1, 37° C., 30 minutes, read-out: IC50 (μM) HDAC6
T2 construct: HA; made in house; host or cells: 293T cells, transient transfection; anti-HA immunoprecipitation and HA peptide elution
T2 sequence (Q9Z2V5 1-1149): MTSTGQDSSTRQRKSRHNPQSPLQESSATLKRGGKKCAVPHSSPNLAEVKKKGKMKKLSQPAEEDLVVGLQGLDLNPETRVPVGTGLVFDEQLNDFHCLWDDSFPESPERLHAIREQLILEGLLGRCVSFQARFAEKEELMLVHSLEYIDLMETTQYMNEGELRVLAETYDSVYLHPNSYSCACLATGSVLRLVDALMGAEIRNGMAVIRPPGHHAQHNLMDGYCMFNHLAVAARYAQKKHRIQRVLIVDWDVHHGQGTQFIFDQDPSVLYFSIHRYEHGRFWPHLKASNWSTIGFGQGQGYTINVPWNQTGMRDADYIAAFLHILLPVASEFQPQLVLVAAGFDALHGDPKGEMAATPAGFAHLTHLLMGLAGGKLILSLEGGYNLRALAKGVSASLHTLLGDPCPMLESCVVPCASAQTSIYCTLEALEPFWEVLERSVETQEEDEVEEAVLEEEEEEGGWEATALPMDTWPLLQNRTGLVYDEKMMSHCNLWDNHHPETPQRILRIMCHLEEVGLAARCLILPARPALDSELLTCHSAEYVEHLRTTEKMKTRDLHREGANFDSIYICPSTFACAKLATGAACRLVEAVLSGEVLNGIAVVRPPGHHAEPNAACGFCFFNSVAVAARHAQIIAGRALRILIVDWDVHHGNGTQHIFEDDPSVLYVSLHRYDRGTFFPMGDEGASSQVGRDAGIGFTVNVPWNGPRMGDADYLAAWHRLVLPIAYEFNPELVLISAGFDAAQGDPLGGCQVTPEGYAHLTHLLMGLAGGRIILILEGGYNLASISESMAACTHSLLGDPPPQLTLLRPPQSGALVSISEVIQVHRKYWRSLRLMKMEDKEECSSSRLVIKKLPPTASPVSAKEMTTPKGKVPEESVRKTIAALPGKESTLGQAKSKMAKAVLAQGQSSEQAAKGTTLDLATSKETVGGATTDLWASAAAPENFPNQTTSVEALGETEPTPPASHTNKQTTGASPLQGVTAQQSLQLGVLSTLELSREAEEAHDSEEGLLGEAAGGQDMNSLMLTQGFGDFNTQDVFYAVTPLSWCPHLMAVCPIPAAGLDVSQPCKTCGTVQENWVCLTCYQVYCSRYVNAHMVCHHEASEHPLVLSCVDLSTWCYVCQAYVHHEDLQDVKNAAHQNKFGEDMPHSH

human HDAC1 = biological target: T3, human HDAC1 (Homo sapiens, UniProt Q13547); test: HDAC inhibitory activity in vitro (coumarin-labeled acetylated histone peptide), HDAC1; type: biochemical
T3 construct: FLAG; made in house; host or cells: 293T cells, transient transfection; anti-FLAG immunoprecipitation and FLAG peptide elution
T3 sequence (Q13547 whole entry): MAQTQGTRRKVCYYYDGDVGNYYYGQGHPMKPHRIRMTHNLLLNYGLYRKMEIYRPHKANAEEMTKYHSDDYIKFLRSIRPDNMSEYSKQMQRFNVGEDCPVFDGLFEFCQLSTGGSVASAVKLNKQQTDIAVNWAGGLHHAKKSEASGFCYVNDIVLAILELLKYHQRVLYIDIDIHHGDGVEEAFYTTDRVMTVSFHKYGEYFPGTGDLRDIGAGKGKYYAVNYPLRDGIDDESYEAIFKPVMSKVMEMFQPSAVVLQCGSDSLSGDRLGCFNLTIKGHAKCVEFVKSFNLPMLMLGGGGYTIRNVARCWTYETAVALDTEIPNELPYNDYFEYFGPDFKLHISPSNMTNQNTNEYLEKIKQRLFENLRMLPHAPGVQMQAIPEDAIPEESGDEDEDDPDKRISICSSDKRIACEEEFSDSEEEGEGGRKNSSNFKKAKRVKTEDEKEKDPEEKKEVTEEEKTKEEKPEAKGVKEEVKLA

[2] = tested on: human wild-type p21 promoter; test: p21 promoter-inducing activity (luciferase) in MFLL-9 cells; type: cell-based
Protocol: The HDAC inhibitory activity in vivo was measured using p21 promoter-inducing activity as an index, as shown below. The MFLL-9 cells employed for the experiments stably maintained fusion genes of human wild-type p21 promoter and luciferase (Dr. B. Vogelstaein). Using phenol red-free DMEM medium comprising 10% FBS, cultivation was carried out in a steam-saturated incubator at 37° C. with 5% carbon dioxide. The MFLL-9 cells were plated at a density of 85,000 cells/well on a 96-well microtiter plate, each in 99 μl of the above-mentioned medium. These were then cultivated for six hours. One μl of test compound solution was added to each well, which was then cultured for another 18 hours.
The intensity of luminescence caused by the product of the enzyme reaction for intracellular luciferase expression was measured using Luc Lite (Packard BioScience Company).
HDAC inhibitory activity in an in vivo system was measured using p21 promoter induction as index. The experimental method followed that of Example 11.

[3] = Table 1, 37° C., 30 minutes, read-out: IC50 (μM) HDAC4
[4] = Table 3, method of Example 11, 50% of the maximum activity observed in TSA
[5] = Table 1, MFLL-9 cells, 18 hours, concentration corresponding to 50% of the maximum active value for TSA

**Q.** Which ring closure, isolated yield ([1]; from H-dTyr(Me)-Ile-Pro-Hly(For,OBzl)-OH, 0.68 mM) does the source give for `CC[C@H](C)[C@@H]1NC(=O)[C@@H](Cc2ccc(OC)cc2)NC(=O)[C@H](CCCCCN(C=O)OCc2ccccc2)NC(=O)[C@@H]2CCCN2C1=O` [cyclo(-L-Hly(For, OBzl)-D-Tyr(Me)-L-Ile-L-Pro-)] here?
**A.** 44%

**Q.** Which results are given for `CC[C@H](C)[C@@H]1NC(=O)[C@@H](Cc2ccc(OC)cc2)NC(=O)[C@H](CCCCCN(O)C=O)NC(=O)[C@H]2CCCN2C1=O` [N(OH)COH Cyclo(X-y(Me)-I-p), n = 5] (cyclo([hLys(Nζ-OH,Nζ-For)][dY](Me)I[dP]))?
**A.** IC50 (human HDAC4; [3]): 0.074 µM; IC50 (mouse HDAC6): 0.78 µM

**Q.** With `CC[C@H](C)[C@@H]1NC(=O)[C@@H](Cc2ccc(OC)cc2)NC(=O)[C@H](CCCCCC(=O)Nc2ccccc2S)NC(=O)[C@H]2CCCN2C1=O` [OATP, cyclo(L-Asu(OATP)-D-Tyr(Me)-L-Ile-D-Pro)] (cyclo([Asu](X3)[dY](Me)I[dP])) as the compound, how does the pIC50 (human HDAC1) read?
**A.** 5.69

**Q.** What about the pIC50 (human HDAC4) of the same compound?
**A.** 6.64

**Q.** What about the pIC50 (mouse HDAC6) of the same compound?
**A.** 3.39

**Q.** And the pEC50 [2, 4]?
**A.** < 4.00

**Q.** With `CC[C@H](C)[C@@H]1NC(=O)[C@@H](Cc2ccc(OC)cc2)NC(=O)[C@H](CCCCCSC)NC(=O)[C@H]2CCCN2C1=O` [SMe] as the compound, how does the pEC50 [2, 5] read?
**A.** < 4.00

**Q.** Which IC50 (human HDAC4; [3]) does the source give for `CC[C@H](C)[C@@H]1NC(=O)[C@@H](Cc2ccc(OC)cc2)NC(=O)[C@H](CCCCCN(O)C=O)NC(=O)[C@@H]2CCCN2C1=O` [N(OH)COH Cyclo(X-y(Me)-I-P), n = 5] (cyclo([hLys(Nζ-OH,Nζ-For)][dY](Me)IP)) here?
**A.** 0.09 µM

**Q.** And the IC50 (mouse HDAC6)?
**A.** 0.029 µM

**Q.** With cyclo(-L-Aph-D-Tyr(Me)-L-Ile-D-Pro-) as the compound, how does the ring closure, isolated yield ([1]; 2.7 mM, 2 steps) read?
**A.** 11%

**Q.** Which ring closure, isolated yield ([1]; from H-dTyr(Me)-Ile-DL-Pip-A2oc(For,OBzl)-OH, 1.6 mM) does the source give for `CC[C@H](C)[C@@H]1NC(=O)[C@@H](Cc2ccc(OC)cc2)NC(=O)[C@H](CCCCCCN(C=O)OCc2ccccc2)NC(=O)C2CCCCN2C1=O` (mixture of isomers) [Cyclo(-L-A2oc(For, OBzl)-D-Tyr(Me)-L-Ile-DL-Pip-)] here?
**A.** 21%

**Q.** With `CC[C@H](C)[C@@H]1NC(=O)[C@@H](Cc2ccc(OC)cc2)NC(=O)[C@H](CCCCCS(C)(=O)=O)NC(=O)[C@H]2CCCN2C1=O` [SO2Me] as the compound, how does the pEC50 [2, 5] read?
**A.** < 4.00

**Q.** For `CC[C@H](C)[C@@H]1NC(=O)[C@@H](Cc2ccc(OC)cc2)NC(=O)[C@H](CCCCCC(=O)Nc2ccccc2O)NC(=O)[C@H]2CCCN2C1=O` [OAPOH, cyclo(L-Asu(OAPOH)-D-Tyr(Me)-L-Ile-D-Pro)] (cyclo([Asu](X1)[dY](Me)I[dP])), which IC50 (human HDAC1; Table 3, method of Example 11, read-out: IC50(μM) HDAC1) is on record?
**A.** 1.22 µM

**Q.** And the IC50 (human HDAC4; Table 3, method of Example 11, read-out: IC50(μM) HDAC4)?
**A.** 0.23 µM

**Q.** And the pEC50 [2, 4]?
**A.** 4.26

**Q.** Which ring closure, isolated yield ([1]; from H-dTyr(Me)-Ile-Pip-Hly(For,OBzl)-OH?, 0.39 mM) does the source give for `CC[C@H](C)[C@@H]1NC(=O)[C@@H](Cc2ccc(OC)cc2)NC(=O)[C@H](CCCCCN(C=O)OCc2ccccc2)NC(=O)[C@@H]2CCCCN2C1=O` [cyclo(-L-Hly(For, OBzl)-D-Tyr(Me)-L-Ile-L-Pip-)] here?
**A.** 28%

**Q.** With `CC[C@H](C)[C@@H]1NC(=O)[C@@H](Cc2ccc(OC)cc2)NC(=O)[C@H](CCCCN(C=O)OCc2ccccc2)NC(=O)[C@@H]2CCCCN2C1=O` [cyclo(-L-Lys(For, OBzl)-D-Tyr(Me)-L-Ile-L-Pip-)] as the compound, how does the ring closure, isolated yield ([1]; from H-dTyr(Me)-Ile-Pip-Lys(For,OBzl)-OH?, 0.4 mM) read?
**A.** 24%
